Measured values taken from the supplement of paper PMC10307832.

Assays:
Experiment in all cases: relative viability (nuclei count vs DMSO), 5 days (fraction); higher = more cells survive
[1] = compound: CC1=C(C=C(C=C1)NC(=O)C2=CC(=CC=C2)C(C)(C)C#N)NC3=CC4=C(C=C3)N=CN(C4=O)C [AZ628] + Nc1ncn([C@H]2C[C@H](O)[C@@H](CO)O2)c(=O)n1 [Decitabine] (partner 2 µM)
Method in brief: (§1)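 Lung cancer cell lines were pin-tool dosed in 1536-well plates on the day after seeding, with either a lone drug or a fixed anchor-drug dose plus five library-drug doses (not always all listed) in √10 steps. Nuclei were counted on 4× images after 5 days. Relative viability is the ratio of treated-well to vehicle-well nuclei counts, with each value a median of duplicate plates.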

[2] = compound: C[As](C)SC[C@H](NC(=O)CC[C@H](N)C(=O)O)C(=O)NCC(=O)O [Darinaparsin] + N=C(N)NC(=N)NCCc1ccccc1 [Phenformin] (partner 250 µM)
Method in brief: as §1

[3] = compound: C1CC2=C(C1)C=C(C=C2)OC3=NC(=C4C(=N3)N(C=N4)CC5=CC=C(C=C5)C6=CC=CC=C6)N[C@@H](CC7=CC=CC=C7)CO [QS11] + Cc1nc(NC(=O)N2CCC[C@H]2C(N)=O)sc1-c1ccnc(C(C)(C)C(F)(F)F)c1 [Alpelisib] (partner 2 µM)
Method in brief: as §1

[4] = compound: C[As](C)SC[C@H](NC(=O)CC[C@H](N)C(=O)O)C(=O)NCC(=O)O [Darinaparsin] + CS(=O)(=O)N1CCN(Cc2cc3nc(-c4cccc5[nH]ncc45)nc(N4CCOCC4)c3s2)CC1 [Pictilisib] (partner 1 µM)
Method in brief: as §1

UMC-11
relative viability ([1]; first compound 0.08 µM): 0.704
relative viability ([1]; first compound 0.253 µM): 0.65
relative viability ([1]; first compound 0.8 µM): 0.551
relative viability ([1]; first compound 2.53 µM): 0.556
relative viability ([1]; first compound 8 µM): 0.758
relative viability ([2]; first compound 0.08 µM): 0.369
relative viability ([2]; first compound 0.8 µM): 0.341
relative viability ([2]; first compound 2.53 µM): 0.357
relative viability ([2]; first compound 8 µM): 0.325
relative viability ([3]; first compound 0.08 µM): 0.939
relative viability ([3]; first compound 0.253 µM): 1.15
relative viability ([3]; first compound 0.8 µM): 1.01
relative viability ([3]; first compound 2.53 µM): 1.08
relative viability ([3]; first compound 8 µM): 1.02
relative viability ([4]; first compound 0.08 µM): 0.897
relative viability ([4]; first compound 0.8 µM): 0.821
relative viability ([4]; first compound 2.53 µM): 0.75
relative viability ([4]; first compound 8 µM): 0.915
